Measured values reported in US7329678B2, “Chemical compounds” (SmithKline Beecham Corporation, priority 2003, dated 2008).
Counter-ions that a name gives are not always drawn.

biological target: T1, Serum Glucocorticoid-regulated Kinase-1 (SGK-1) (Homo sapiens, UniProt O00141, S422D); assay: SGK-1 Enzyme Assay (SGK1e), substrate phosphorylation, scintillation proximity; type: biochemical; conditions: truncated human SGK-1 (aa 61-431, S422D), 10 μM ATP, Crosstide substrate
T1 construct: a truncated form of the human enzyme that included amino acids 61-431; 6xHis (N); made in house
T1 sequence (O00141 61-431 S422D): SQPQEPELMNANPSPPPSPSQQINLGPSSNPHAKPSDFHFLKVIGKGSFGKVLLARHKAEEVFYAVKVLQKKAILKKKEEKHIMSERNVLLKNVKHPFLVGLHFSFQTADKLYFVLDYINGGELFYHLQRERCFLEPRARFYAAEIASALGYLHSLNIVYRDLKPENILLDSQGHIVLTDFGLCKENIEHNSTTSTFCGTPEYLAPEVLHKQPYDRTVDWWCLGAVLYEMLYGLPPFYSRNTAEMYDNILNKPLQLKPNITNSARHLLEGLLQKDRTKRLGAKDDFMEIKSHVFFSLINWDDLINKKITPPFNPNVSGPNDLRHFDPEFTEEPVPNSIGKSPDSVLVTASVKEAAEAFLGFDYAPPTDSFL
Method: SGK-1 Enzyme Assay (SGK1e):
Compounds of the present invention were tested for Serum Glucocorticoid-regulated Kinase-1 (SGK-1) protein serine/threonine kinase inhibitory activity in substrate phosphorylation assays using enzyme purified from a baculovirus expression vector system. The recombinant baculovirus was made to express the intracellular domain of SGK-1 (GenBank accession number AAD41091). The virus expressed a truncated form of the human enzyme that included amino acids 61-431. Serine 422 was replaced with Aspartic acid to activate the enzyme, and 6 Histidine residues were added at the amino terminus to facilitate purification. The protein was purified using Ni-NTA agarose affinity chromatography. The peptide substrate was an N-terminal biotinylated synthetic peptide named Crosstide (biotin-Ahx-GRPRTSSFAEG-OH), corresponding to the sequence in GSK3 surrounding the serine phosphorylated by MAPKAP Kinase-1/Rsk and p70 S6 Kinase.
The method measures the ability of the isolated enzyme to catalyze the transfer of the γ-phosphate from ATP onto serine/threonine residues in the biotinylated Crosstide. Reactions were performed in 96-well polystyrene round-bottom plates in a final volume of 30 μL. Reaction mixtures contained 62.5 mM HEPES (pH 7.4), 10 mM MgCl2, 0.1 mM EDTA, 0.0024% TWEEN-20, and 1 mM DTT (added fresh daily), 10 μM ATP, 0.2 μCi [[ν-^33P] ATP per reaction, 4 μM Crosstide peptide substrate, and 1 nM SGK1 enzyme. Reactions were initiated by adding the indicated enzyme. The reaction was allowed to proceed for 2 hours, then terminated by the addition of 50 mM EDTA and quantified using a scintillation proximity assay procedure as described (McDonald, O. B., Antonsson, B., Arkinstal, S., Marshall, C. J., and Wood, E. R. (1999) Analytical Biochemistry, 268, 318-329).
Compounds under analysis were dissolved in Me2SO to 1 mM and serially diluted 1 to 3 with Me2SO through eleven columns of a 96 well plate. 1 μL of each concentration was transferred to the corresponding well of the assay plate. This created a final compound concentration range from 0.56 nM to 33.3 μM.
The data for dose responses were plotted as % Control calculated with the data reduction formula 100*(U1−C2)/(C1−C2) versus concentration of compound and fitted to the curve described by: y=((Vmax*x)/(K+x)) where Vmax is the upper asymptote and K is the IC50.

IC50 | SMILES
< 1000 nM | COc1cccc(-c2cnc(N)c(-c3nc4cc(Cl)c(F)cc4[nH]3)c2)c1 [Example 11, 3-(5-chloro-6-fluoro-1H-benzimidazol-2-yl)-5-(3-methoxyphenyl)pyridin-2-amine hydrochloride]
< 1000 nM | COC(=O)c1ccc2nc(-c3cc(-c4cccc(OC)c4)cnc3N)[nH]c2c1 [Example 7, Methyl 2-[2-amino-5-(3-methoxyphenyl)pyridin-3-yl]-1H-benzimidazole-6-carboxylate hydrochloride]
< 1000 nM | Cc1cccc2[nH]c(-c3cc(-c4ccc(F)cc4)cnc3N)nc12 [Example 17, 5-(4-fluorophenyl)-3-(4-methyl-1H-benzimidazol-2-yl)pyridin-2-amine]
< 1000 nM | Nc1ncc(-c2ccccc2)cc1-c1nc2ccccc2[nH]1 [Example 1, 3-(1H-benzimidazol-2-yl)-5-phenylpyridin-2-amine hydrochloride]
< 1000 nM | Nc1ncc(-c2ccc(F)cc2)cc1-c1nc2ccc(S(N)(=O)=O)cc2[nH]1 [Example 14, 2-[2-amino-5-(4-fluorophenyl)pyridin-3-yl]-1H-benzimidazole-6-sulfonamide]
< 1000 nM | Nc1ncc(-c2ccccc2)cc1-c1nc2ccc(S(N)(=O)=O)cc2[nH]1 [Example 4, 2-(2-amino-5-phenylpyridin-3-yl)-1H-benzimidazole-6-sulfonamide hydrochloride]
